Assays:
[1] = UV-Vis self-aggregation of the conjugates; assay type: physicochemical; details: UV-Vis 300–650 nm, 5 μM, 10 mM phosphate buffer pH 7.4, room temperature, 0–120 h
Protocol: We first studied the effects of peptide conjugation on the porphyrin chromophore, by UV‐Vis spectra in the region between 300–650 nm. The spectra were recorded using a solution of 5 μM Porphyrin‐peptide conjugate in 10 mM phosphate buffer pH 7.4. The UV‐Vis profile of the porphyrin precursor MCPTPyP, recorded at the same concentration, is also shown for the sake of comparison (Figure 1).
Peptide conjugation influences the spectral features of the porphyrin chromophore as evidenced by the red shift in the absorption maximum in the region of the Soret band region. The Q bands are also affected, particularly in the Cu‐Ph‐Pep and Zn‐Ph‐Pep compounds (Figure 1). In this case the presence of a metal ion within the porphyrin's core might contribute to the observed spectral profile of these compounds. […] The fluorescence spectra of the investigated systems were also acquired in view of the interaction of the studied conjugates with cells (see below biological section).[41] The fluorescence spectra were recorded with the photoexcitation at 425±5 nm, in 10 mM phosphate buffer pH 7.4 and 5 μM concentration. The emission spectrum of the porphyrin precursor MCPTPyP ( Ph ) was also obtained for the sake of comparison.
(§1) Spectra were recorded on a Jasco V‐670 Spectrophotometer at room temperature. All measurements were performed in the 300–650 nm wavelength region, in a 10 mM phosphate buffer solution at pH 7.4 using a 1 cm path length quartz cell. The spectra of all the peptide‐porphyrin conjugates, either in the absence or in the presence of equimolar Aβ42, were acquired at 5 μM. In some cases, the same sample solution was used to run the CD spectra. The final concentrations of Aβ42 and peptide conjugates were 5 μM (1 : 1 molar ratio).

[2] = target: Aβ42 (Homo sapiens, UniProt P05067); assay: UV-Vis of conjugates with equimolar Aβ42; assay type: biochemical; details: 5 μM conjugate, equimolar Aβ42, 10 mM phosphate buffer pH 7.4, 0, 24, 48 and 120 h
Sequence of Aβ42 (P05067 672-713 limits assumed): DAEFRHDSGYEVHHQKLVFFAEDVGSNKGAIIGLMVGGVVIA
Protocol: The UV‐Vis spectra of porphyrin‐peptide conjugates (5 μM) were recorded in the presence of an equimolar ration of Aβ42 monomers at 0, 24, 48 and 120 h (Figure 2S). […] Therefore, the interaction of the peptide‐porphyrin conjugates with Aβ was further studied using CD spectroscopy. The Aβ42 aggregation process was monitored either in the absence or in the presence of an equimolar amount of the conjugated peptides. A series of CD control experiments were preventively carried out to assess the propensity of the porphyrin‐peptide conjugates to adopt a β‐sheet conformation. The corresponding CD curves are shown in the supplementary material (Figure 3S). […] We then evaluated the ability of the porphyrin‐peptide conjugates to affect the Aβ42’s aggregation process. This was accomplished by running a series of CD experiments on the binary systems in the same experimental conditions as the control CD measurements. A 5 μM Aβ42 sample was used as a positive control of the aggregation process (Figure 3, panel a). In this case, the curve profiles indicate that at 0 h, Aβ42 is predominantly in the random coil conformation, as evidenced by the negative ellipticity around 200 nm. […] The typical dichroic profile characterized by a negative ellipticity at λ=222 nm and a positive band at λ=200 is indicative of this event (Figure 3, panel a).
as §1

[3] = tested on: Aβ8–20; assay: CD of conjugate with Aβ8–20 fragment; assay type: binding
Protocol: To better visualize how the induced signal increases as Aβ42 adopts the β‐sheet conformation, a comparative graph displaying the absolute value of the CD intensities at the maximum absorption wavelength for each derivative, either in the presence or absence of Aβ42 over the same time interval, is reported in the SI (Figure 7S). […] (Figure 8S panel a). […] We assume that the conjugate Zn‐Ph‐Pep conjugate could similarly interact with the Aβ8–20 fragment.
Spectra were recorded on a J‐810 spectrometer (Jasco, Japan) under a constant flow of N2 at room temperature. The CD measurements were performed in the wavelength regions (190–260 nm, 195–350 nm and 350–500 nm) using a 1 cm path length quartz cell. All aggregation kinetics were monitored up to 120 hours. The CD spectra were recorded for Aβ42 (5 μM and 20 μM) monomer in the absence or in the presence of porphyrin‐peptide conjugates (5 μM and 20 μM for the 1 : 1 molar ratios). Monomerized samples of Aβ42 (5 μM and 20 μM) were solubilized in 50 μL of NaOH 20 mM (2,5 %) and after were diluted with 1950 μL of 10 mM phosphate buffer at pH 7.4 pure or containing the solubilized conjugates.

## COC(=O)[C@H](Cc1cn(CCCC[C@H](NC(=O)CNC(C)=O)C(=O)N2CCC[C@H]2C(=O)NCC(=O)N[C@@H](CCCCN)C(=O)N[C@@H](CC(C)C)C(=O)N[C@H](C(=O)N[C@@H](Cc2ccccc2)C(=O)N[C@@H](Cc2ccccc2)C(N)=O)C(C)C)nn1)NC(=O)c1ccc(-c2c3nc(c(-c4cc[n+](C)cc4)c4ccc([nH]4)c(-c4cc[n+](C)cc4)c4nc(c(-c5cc[n+](C)cc5)c5ccc2[nH]5)C=C4)C=C3)cc1 [Zn‐Ph‐Pep]
[1]
  self-aggregation: slight propensity to self‐aggregation
[2]
  UV-Vis spectral change in presence of Aβ42: may suggest a rapid formation of aggregated species
[3]; Far-UV CD
  conformation of Aβ8–20/conjugate mixture: significant amount of random coil conformation
[3]; same experimental conditions as with Aβ42
  induced CD signal in visible region with Aβ8–20: no induced CD signal is clearly detectable

— paper PMC11610669, “A Spectroscopic Study on the Amyloid‐β Interaction with Clicked Peptide‐Porphyrin Conjugates: a Vision Toward the Detection of Aβ Peptides in Aqueous Solution” (Chembiochem, 2024)
